Measured values reported in patent US20240365736A1, “COMPOSITIONS AND METHODS FOR TARGETED DEGRADATION OF PROTEINS IN A PLANT CELL” (Oerth Bio LLC, priority 2021, published 2024).

Columns and labels:
[1] = tested on: Matricaria recutita, Diplotaxis tenuifolia, Agrostis spp., Poa annua, or Arabidopsis thaliana; assay: Plant phenotyping assay (herbicidal phenotypes, 96-well plates); format: in vivo; settings: visual score of herbicidal phenotypes after seven days; 238, 475, 950, and 1900 g ai/ha (50-400 uM); also: key: '+++' is highly active; '++' is moderately active; '+' is weakly active; '−' is inactive
Method: Seeds of Matricaria recutita, Diplotaxis tenuifolia, Agrostis spp., Poa annua, or Arabidopsis thaliana were sown into 96-well plates containing 200 μl of growth media [0.5× Murashige and Skoog (MS) basal media (Sigma-Aldrich), 2.5 mM 2-(N-morpholino) ethanesulfonic acid (MES—Sigma-Aldrich), 0.7 g/L Phytagar (Invitrogen); pH 5.7]. Three to five seeds were distributed per well. Plates were placed under fifteen hours of light at 23° C., 65% humidity in a controlled environment growth chamber. After approximately three days, test compounds and controls were mixed with acetone and emulsified with an equal volume of 3% methyl ester of rapeseed oil (Mero), and applied to plants at concentrations of 238, 475, 950, and 1900 g ai/ha (50-400 uM).

[2] = target: plant cereblon (Cereblon ligand binding domain) (Arabidopsis thaliana, UniProt F4ISN3); assay: Ligand binding affinity by microscale thermophoresis (Monolith), labeled Cereblon ligand binding domain; settings: MST, RED-tris-NTA His-tag labeled Cereblon ligand binding domain, 25 nM labeled protein; binding to plant cereblon; read-out: Plant CRBN Kd
Sequence of plant cereblon (Cereblon ligand binding domain) (F4ISN3 1-547): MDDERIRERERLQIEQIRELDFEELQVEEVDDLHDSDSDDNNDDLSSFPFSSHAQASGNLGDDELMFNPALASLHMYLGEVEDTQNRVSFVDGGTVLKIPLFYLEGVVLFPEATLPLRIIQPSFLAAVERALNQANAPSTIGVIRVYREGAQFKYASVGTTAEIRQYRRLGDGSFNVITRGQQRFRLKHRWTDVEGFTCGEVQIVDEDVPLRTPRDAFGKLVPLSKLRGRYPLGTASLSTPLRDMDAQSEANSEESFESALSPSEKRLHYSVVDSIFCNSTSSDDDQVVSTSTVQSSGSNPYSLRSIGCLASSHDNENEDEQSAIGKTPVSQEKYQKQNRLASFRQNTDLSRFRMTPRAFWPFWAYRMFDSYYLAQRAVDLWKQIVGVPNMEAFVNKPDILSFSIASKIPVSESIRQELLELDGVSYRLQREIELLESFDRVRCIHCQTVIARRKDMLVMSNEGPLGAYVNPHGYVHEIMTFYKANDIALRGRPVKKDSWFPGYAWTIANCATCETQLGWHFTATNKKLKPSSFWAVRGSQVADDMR
Method: The binding affinity of the described test compounds was determined using RED-tris-NTA His-tag labeled Cereblon ligand binding domain. The labeling of the Cereblon ligand binding domain was performed according to manufacturer's protocol in assay buffer (50 nM protein: 10 nM dye, 5:1 protein to dye ratio). 200 μM compound in assay buffer (10 mM HEPES pH 7.4, 300 mM NaCl, 0.1% Pluronic-147, 10% Glycerol, 5 mM DTT) was created from 10 mM compound stock in DMSO. A 16-point serial dilution was achieved by taking 10 μL of the 200 μM first well and diluting into 10 μL of assay buffer in the second well, which was diluted in 10 μL assay buffer in the third well, and so on. DMSO content of each well matched to 2%. 10 μL of 50 nM CRBN was added to each well and mixed thoroughly by pipetting. Final assay concentration of 25 nM labeled protein and highest compound concentration of 100 μM, 1% DMSO.
Samples were incubated at room temperature in the dark for five minutes, then collected in standard Monolith capillaries. Assay was performed on the Monolith NT.155Pico using automated excitation level and medium power on M.O. Control software. Analysis of MST traces and determination of dissociation constants and was conducted in M.O. Affinity Analysis software, and the results are shown in Table 2 below.

Row | SMILES | Plant Activity [1] | Kd [2]
1 | CCO/N=C(\CC)C1=C(O)CC(c2ccc(OCCOCCOCCN3CCN(c4ccc5c(c4)C(=O)N(C4CCC(=O)NC4=O)C5=O)CC3)cc2)CC1=O (stereo not shown) [Compound 5-B, (E)-2-(2,6-Dioxopiperidin-3-yl)-5-(4-(2-(2-(2-((4′-(1-(ethoxyimino)propyl)-5′-hydroxy-3′-oxo-1′,2′,3′,6′-tetrahydro-[1,1′-biphenyl]-4-yl)oxy)ethoxy)ethoxy)ethyl)piperazin-1-yl)isoindoline-1,3-dione] | + | 
2 | CCO/N=C(\CC)C1=C(O)CC(c2ccc(OC3CCN(CCOCCOCCOCCN4CCN(c5ccc6c(c5)C(=O)N(C5CCC(=O)NC5=O)C6=O)CC4)CC3)cc2)CC1=O (stereo not shown) [Compound 5-C, (E)-2-(2,6-Dioxopiperidin-3-yl)-5-(4-(2-(2-(2-(2-(4-((4′-(1-(ethoxyimino)propyl)-5′-hydroxy-3′-oxo-1′,2′,3′,6′-tetrahydro-[1,1′-biphenyl]-4-yl)oxy)piperidin-1-yl)ethoxy)ethoxy)ethoxy)ethyl)piperazin-1-yl)isoindoline-1,3-dione] | + | 
3 | CCO/N=C(\CC)C1=C(O)CC(c2ccc(OCCOCCN3CCC(CCCN4CCN(c5ccc6c(c5)C(=O)N(C5CCC(=O)NC5=O)C6=O)CC4)CC3)cc2)CC1=O (stereo not shown) [Compound 5-D, (E)-2-(2,6-Dioxopiperidin-3-yl)-5-(4-(3-(1-(2-(2-((4′-(1-(ethoxyimino)propyl)-5′-hydroxy-3′-oxo-1′,2′,3′,6′-tetrahydro-[1,1′-biphenyl]-4-yl)oxy)ethoxy)ethyl)piperidin-4-yl)propyl)piperazin-1-yl)isoindoline-1,3-dione] | + | 
4 | CCOC(=O)[C@@H](C)Oc1ccc(Oc2ccc(OCCOCCOCCOc3ccc4c(c3)C(=O)N(C3CCC(=O)NC3=O)C4=O)cn2)cc1 (stereo partly drawn) [Compound 6, Ethyl (2R)-2-(4-((5-(2-(2-(2-((2-(2,6-dioxopiperidin-3-yl)-1,3-dioxoisoindolin-5-yl)oxy)ethoxy)ethoxy)ethoxy)pyridin-2-yl)oxy)phenoxy)propanoate] | + | 
5 | CCOC(=O)[C@@H](C)Oc1ccc(Oc2ccc(OCCOCCOCCN3CCN(c4ccc5c(c4)C(=O)N(C4CCC(=O)NC4=O)C5=O)CC3)cn2)cc1 (stereo partly drawn) [Compound 6-A, Ethyl (2R)-2-(4-((5-(2-(2-(2-(4-(2-(2,6-dioxopiperidin-3-yl)-1,3-dioxoisoindolin-5-yl)piperazin-1-yl)ethoxy)ethoxy)ethoxy)pyridin-2-yl)oxy)phenoxy)propanoate] | + | 
6 | CCOC(=O)[C@@H](C)Oc1ccc(Oc2ccc(OCCOCCN3CCC(CCCN4CCN(c5ccc6c(c5)C(=O)N(C5CCC(=O)NC5=O)C6=O)CC4)CC3)cn2)cc1 (stereo partly drawn) [Compound 6-B, Ethyl (2R)-2-[4-[[5-[2-[2-[4-[3-[4-[2-(2,6-dioxo-3-piperidyl)-1,3-dioxo-isoindolin-5-yl]piperazin-1-yl]propyl]-1-piperidyl]ethoxy]ethoxy]-2-pyridyl]oxy]phenoxy]propanoate] | + | 
7 | CCOC(=O)[C@@H](C)Oc1ccc(Oc2ccc(OC3CCN(CCOCCOCCOCCN4CCN(c5ccc6c(c5)C(=O)N(C5CCC(=O)NC5=O)C6=O)CC4)CC3)cn2)cc1 (stereo partly drawn) [Compound 6-C, Ethyl (2R)-2-(4-((5-((1-(2-(2-(2-(2-(4-(2-(2,6-dioxopiperidin-3-yl)-1,3-dioxoisoindolin-5-yl)piperazin-1-yl)ethoxy)ethoxy)ethoxy)ethyl)piperidin-4-yl)oxy)pyridin-2-yl)oxy)phenoxy)-propanoate] | − | 
8 | O=C(COc1ccc(Oc2cncc(C(F)(F)F)c2)cc1)NCCCOCCOCCOCCOCCOc1ccc2c(c1)C(=O)N(C1CCC(=O)NC1=O)C2=O (stereo not shown) [Compound 7, N-[3-[2-[2-[2-[2-[2-(2,6-dioxo-3-piperidyl)-1,3-dioxo-isoindolin-5-yl]oxyethoxy]-ethoxy]ethoxy]ethoxy]propyl]-2-[4-[[5-(trifluoromethyl)-3-pyridyl]oxy]phenoxy]acetamide] | + | 
9 | O=C(COc1ccc(Oc2cncc(C(F)(F)F)c2)cc1)NCCCOCCOCCOc1ccc2c(c1)C(=O)N(C1CCC(=O)NC1=O)C2=O (stereo not shown) [Compound 7-A, N-(3-(2-(2-((2-(2,6-Cioxopiperidin-3-yl)-1,3-dioxoisoindolin-5-yl)oxy)ethoxy)ethoxy)propyl)-2-(4-((5-(trifluoromethyl)pyridin-3-yl)oxy)phenoxy)acetamide] | − | 
10 | O=C(COc1ccc(Oc2cncc(C(F)(F)F)c2)cc1)NCCCOCCOCCOCCOc1ccc2c(c1)C(=O)N(C1CCC(=O)NC1=O)C2=O (stereo not shown) [Compound 7-B, N-(3-(2-(2-(2-((2-(2,6-dioxopiperidin-3-yl)-1,3-dioxoisoindolin-5-yl)oxy)ethoxy)ethoxy)ethoxy)propyl)-2-(4-((5-(trifluoromethyl)pyridin-3-yl)oxy)phenoxy)acetamide] | + | 
11 | O=C(COc1ccc(Oc2cncc(C(F)(F)F)c2)cc1)NCCCOCCOCCOCCOCCOCCOc1ccc2c(c1)C(=O)N(C1CCC(=O)NC1=O)C2=O (stereo not shown) [Compound 7-C, N-(1-((2-(2,6-dioxopiperidin-3-yl)-1,3-dioxoisoindolin-5-yl)oxy)-3,6,9,12,15-pentaoxaoctadecan-18-yl)-2-(4-((5-(trifluoromethyl)pyridin-3-yl)oxy)phenoxy)acetamide] | − | 
12 | O=C(COc1ccc(Oc2nc3ccc(F)cc3s2)cc1)NCCCOCCOCCOCCOCCOc1ccc2c(c1)C(=O)N(C1CCC(=O)NC1=O)C2=O (stereo not shown) [Compound 8, N-[3-[2-[2-[2-[2-[2-(2,6-dioxo-3-piperidyl)-1,3-dioxo-isoindolin-5-yl]oxyethoxy]-ethoxy]ethoxy]ethoxy]propyl]-2-[4-[(6-fluoro-1,3-benzothiazol-2-yl)oxy]phenoxy]acetamide] | + | 
13 | O=C(COc1ccc(Oc2nc3ccc(F)cc3s2)cc1)NCCCOCCOCCOc1ccc2c(c1)C(=O)N(C1CCC(=O)NC1=O)C2=O (stereo not shown) [Compound 8-A, N-(3-(2-(2-((2-(2,6-Dioxopiperidin-3-yl)-1,3-dioxoisoindolin-5-yl)oxy)ethoxy)ethoxy)propyl)-2-(4-((6-fluorobenzo[d]thiazol-2-yl)oxy)phenoxy)acetamide] | + | 
14 | O=C(COc1ccc(Oc2nc3ccc(F)cc3s2)cc1)NCCCOCCOCCOCCOc1ccc2c(c1)C(=O)N(C1CCC(=O)NC1=O)C2=O (stereo not shown) [Compound 8-B, N-(3-(2-(2-(2-((2-(2,6-Dioxopiperidin-3-yl)-1,3-dioxoisoindolin-5-yl)oxy)ethoxy)ethoxy)ethoxy)propyl)-2-(4-((6-fluorobenzo[d]thiazol-2-yl)oxy)phenoxy)acetamide] | + | 
15 | CC(Oc1ccc(Oc2nc3ccc(F)cc3s2)cc1)C(=O)Nc1ccc(OCCCOCCOCCOCCOc2ccc3c(c2)C(=O)N(C2CCC(=O)NC2=O)C3=O)cc1F (stereo not shown) [Compound 8-C, N-(4-(3-(2-(2-(2-((2-(2,6-Dioxopiperidin-3-yl)-1,3-dioxoisoindolin-5-yl)oxy)ethoxy)ethoxy)-ethoxy)propoxy)-2-fluorophenyl)-2-(4-((6-fluorobenzo[d]thiazol-2-yl)oxy)phenoxy)propanamide] | + | 
16 | COCCOCC1COCCN1Cc1ccc(COc2cccc3c2CN([C@H]2CCC(=O)NC2=O)C3=O)cc1 (stereo partly drawn) [Example 11, (3S)-3-(4-((4-((3-((2-methoxyethoxy)methyl)morpholino)methyl)benzyl)-oxy)-1-oxoisoindolin-2-yl)piperidine-2,6-dione] |  | < 100 nM
17 | COCCNCC1COCCN1Cc1ccc(COc2cccc3c2CN([C@H]2CCC(=O)NC2=O)C3=O)cc1 (stereo partly drawn) [Example 12, (3S)-3-[4-[[4-[[3-[(2-Methoxyethylamino)methyl]morpholin-4-yl]methyl]-phenyl]methoxy]-1-oxo-isoindolin-2-yl]piperidine-2,6-dione] |  | 100 to 1000 nM
18 | COCCNC(=O)C1CCCN(Cc2ccc(COc3cccc4c3CN(C3CCC(=O)NC3=O)C4=O)cc2)C1 [Example 14, 1-(4-(((2-((S)-2,6-dioxopiperidin-3-yl)-1-oxoisoindolin-4-yl)oxy)methyl)benzyl)-N-(2-methoxyethyl)piperidine-3-carboxamide] |  | 100 to 1000 nM
19 | COCCNC(=O)C1CCN(Cc2ccc(COc3cccc4c3CN([C@H]3CCC(=O)NC3=O)C4=O)cc2)CC1 [Example 16, (S)-1-(4-(((2-(2,6-dioxopiperidin-3-yl)-1-oxoisoindolin-4-yl)oxy)methyl)benzyl)-N-(2-methoxyethyl)piperidine-4-carboxamide] |  | 100 to 1000 nM
